Results on three compounds are retold here after patent US20220064696A1, “TARGET ENGAGEMENT ASSAY FOR RAS PROTEINS” (Promega Corporation, priority 2020, published 2022).

What all share (assay type): binding
One test has as its target T1, KRAS (Homo sapiens, UniProt P01116).
T1 construct: expressed in transfected cells; host or cells: HEK293
Put plainly: NanoLuc fusion BRET target engagement assay in cells, tracer JRW-2025. Conditions: HEK293 cells, wild-type KRAS-NanoLuc fusion, tracer JRW-2025, FIG. 4. The protocol:
(§1) Luminescence was produced from either NanoLuc (Nluc) tagging of KRAS as the BRET donor, or by NanoBiT tagging of KRAS, wherein BRET donor signal originates from KRAS multimeric species in cells. In 96-well plates, 20,000 HEK293 cells per well were transfected with KRAS-Nluc fusions or KRAS-NanoBiT fusions expressed from pFN31K and pFN32K plasmids. Transfections were performed using 3:1 FuGENE HD:plasmid ratios. […] After incubation, NanoBRET-TE substrate solution was added to a final concentration of 1×, and BRET was measured on a Glomax Discover plate reader.

The next test addresses T2, KRAS^G12C (Homo sapiens, UniProt P01116, G12C).
T2 construct: expressed in transfected cells; host or cells: HEK293
Described as above. Conditions: HEK293 cells, tracer JRW-2025, FIG. 4. The protocol:
as §1

The next test addresses T3, KRAS^G12D (Homo sapiens, UniProt P01116, G12D).
T3 construct: expressed in transfected cells; host or cells: HEK293
The description is as above. Conditions: HEK293 cells, tracer JRW-2025, FIG. 4. The protocol:
as §1

A further test has as its target T4, KRAS^G12V (Homo sapiens, UniProt P01116, G12V).
T4 construct: expressed in transfected cells; host or cells: HEK293
The description is as above. The note with it: HEK293 cells, tracer JRW-2025, FIG. 4. The method, then:
as §1

The next test deals with T5, KRAS2B(G12V) (Homo sapiens, UniProt P01116, G12V).
T5 construct: expressed in transfected cells; host or cells: HEK293
The test is described as follows: Target engagement at KRAS(G12V) homomultimeric complexes, NanoBiT oligomer configuration with SmBiT tag. Conditions: live HEK293 cells, LgBiT-KRAS2B(G12V) and SmBiT-KRAS2B(G12V), FIG. 5. The method, then:
To explore this concept, the NanoBiT™ Technology was used to observe KRAS multimeric (e.g., dimer) complexes by NanoBiT tagging of KRAS, wherein BRET donor signal originates from an oligomeric KRAS. In a tissue culture flask, HEK293 cells per well were transfected with KRAS-NanoBiT fusions, LgBiT-KRAS2B(G12V) and SmBiT-KRAS2B(G12V) expressed from pNB3K or pNB4K plasmids along with pGEM-3Z carrier DNA (1:1:8 ratio by mass). Transfections were performed using 3:1 FuGENE HD:plasmid ratios. 24 hours post transfection, cells were treated with compound JRW-2192 and BI-2852.
(§2) After incubation in live cells, NanoBRET-TE substrate solution was added to a final concentration of 1×, and BRET was measured on a Glomax Discover plate reader.

Test [1] deals with T6, KRAS2B(G12C) (Homo sapiens, UniProt P01116, G12C).
T6 construct: expressed in transfected cells; host or cells: HEK293
The test is described as follows: Target engagement at KRAS(G12C) homomultimeric complexes, NanoBiT oligomer configuration with SmBiT tag. The note with it: LgBiT-KRAS2B(G12C) and SmBiT-KRAS2B(G12C). The protocol:
To explore this concept, the NanoBiT™ Technology was used to observe KRAS multimeric (e.g., dimer) complexes by NanoBiT tagging of KRAS, wherein BRET donor signal originates from an oligomeric KRAS. In a tissue culture flask, HEK293 cells per well were transfected with KRAS-NanoBiT fusions, LgBiT-KRAS2B(G12C) and SmBiT-KRAS2B(G12C) expressed from pNB3K or pNB4K plasmids along with pGEM-3Z carrier DNA (1:1:8 ratio by mass). Transfections were performed using 3:1 FuGENE HD:plasmid ratios. 24 hours post transfection, cells were treated with compound JRW-2220 and BI-2852.
as §2
The assay was also performed in digitonin permeabilized cells.

The target in test [2] is T6, KRAS2B(G12C). Put plainly: KRAS(G12C) homomultimeric complexes, NanoBiT oligomer configuration with HiBiT tag. Conditions: LgBiT-KRAS2B(G12C) and HiBiT-KRAS2B(G12C). The protocol: To explore this concept, the NanoBiT™ Technology was used to form KRAS multimeric (e.g., dimer) complexes by NanoBiT tagging of KRAS, wherein BRET donor signal originates from an oligomeric KRAS. In a tissue culture flask, HEK293 cells per well were transfected with KRAS-NanoBiT fusions, LgBiT-KRAS2B(G12C) and HiBiT-KRAS2B(G12C) expressed from pNB3K or pFN38A plasmids along with pGEM-3Z carrier DNA (1:1:8 ratio by mass). Transfections were performed using 3:1 FuGENE HD:plasmid ratios. 24 hours post transfection, cells were treated with compound JRW-2220 and BI-2852.
as §2
The assay was also performed in digitonin permeabilized cells. Even after permeabilization, donor signal levels remained significant due to the use of the HiBiT tag, facilitating measurement of target engagement.

For `C=CC(=O)N1CCN(c2ncnc3c(F)c(-c4c(O)cccc4F)c(Cl)cc23)CC1` [ARS-1620], the “competition with the KRAS binding agent (BRET)” value is “only observed for the KRAS^G12C mutant” on KRAS, “competition was only observed for the KRAS^G12C mutant” on KRAS^G12C, “only observed for the KRAS^G12C mutant” at KRAS^G12D and “only observed for the KRAS^G12C mutant” at KRAS^G12V.

On to `O=C(CCc1ccc2n1[B-](F)(F)[N+]1=C(c3ccc[nH]3)C=CC1=C2)NCCOCCOCCOCCOCCC(=O)NCc1cccc(Cn2ccc3ccc(CNCc4[nH]c5ccccc5c4C4NC(=O)c5ccc(O)cc54)cc32)c1` (stereo not drawn) [JRW-2192, 1-(3-(5,5-difluoro-7-(1H-pyrrol-2-yl)-5H-5λ^4,6λ^4-dipyrrolo[1,2-c:2′,1′-f][1,3,2]diazaborinin-3-yl)propanamido)-N-(3-((6-((((3-(6-hydroxy-3-oxoisoindolin-1-yl)-1H-indol-2-yl)methyl)amino)methyl)-1H-indol-1-yl)methyl)benzyl)-3,6,9,12-tetraoxapentadecan-15-amide], for which the “BRET signal with increasing concentrations of the tracer” value at KRAS2B(G12V) was “dose-dependent increase in the BRET signal”.

In the case of `O=C(CCOCCOCCOCCOCCNC(=O)CCc1ccc2n1[B-](F)(F)[N+]1=C(c3ccc[nH]3)C=CC1=C2)NCCCn1cnc(Cn2ccc3ccc(CNCc4[nH]c5ccccc5c4C4NC(=O)c5ccc(O)cc54)cc32)c1` (stereo not drawn) [JRW-2220, 1-(3-(5,5-difluoro-7-(1H-pyrrol-2-yl)-5H-5λ^4,6λ^4-dipyrrolo[1,2-c:2′,1′-f][1,3,2]diazaborinin-3-yl)propanamido)-N-(3-(4-((6-((((3-(6-hydroxy-3-oxoisoindolin-1-yl)-1H-indol-2-yl)methyl)amino)methyl)-1H-indol-1-yl)methyl)-1H-imidazol-1-yl)propyl)-3,6,9,12-tetraoxapentadecan-15-amide], the “BRET signal with increasing concentrations of the tracer” value is given as “dose-dependent increase in the BRET signal” at KRAS2B(G12C) [1] (digitonin permeabilized HEK293 cells, FIG. 7); “dose-dependent increase in the BRET signal” on KRAS2B(G12C) [1] (live HEK293 cells, FIG. 6); “dose-dependent increase in the BRET signal” on KRAS2B(G12C) [2] (digitonin permeabilized HEK293 cells, FIG. 9); “dose-dependent increase in the BRET signal” at KRAS2B(G12C) [2] (live HEK293 cells, FIG. 8).
